Test results from US12564596B2, “Agents and methods for modulating pathogen activity” (Griffith University, priority 2018, dated 2026).
Like-named read-outs stand apart in the source and are kept apart here.

Tests used:
[1] = target: T1, human recombinant I-domain (rI-domain) of CD11b (Homo sapiens, UniProt P11215); assay: Surface plasmon resonance binding to human rI-domain (KD)
T1 construct: made in house

[2] = target: T2, N. gonorrhoeae MS11 pilin interaction with human rI-domain (Homo sapiens, UniProt P11215); assay: SPR 1:1 competition assay, MS11 pilin binding to rI-domain; details: for inhibition at 0.1 µM: 1:1 competition, 100 nM; for Block MS11 pilin in SPR: direct competition SPR; for Drug RU: drug alone flowed at 100 nM over immobilized rI-domain; for Pilin + Drug RU: drug and pilin flowed at 100 nM, 1:1
T2 construct: was performed with human rI-domain immobilized on a CM5 sensor chip surface; made in house
Protocol: To determine if drugs with high affinity interactions with the human rI-domain could inhibit the interaction with MS11 pilin or HIV, competition assay between primary T-cell derived WITO HIV and N. gonorrhoeae MS11 pilin and the drugs were performed as described Mubaiwa et al (2017, Sci Rep. 7(1):5693). Competition analysis SPR of N. gonorrhoeae MS11 pilin and human rI-domain interaction was performed with human rI-domain immobilized on a CM5 sensor chip surface (low immobilization—˜3500 RU compared to ˜14000 RU for initial screening and KD calculations). N. gonorrhoeae MS11 purified pilin, drug or drug and pilin were flowed at 100 nM over the I-domain and the response units of the interactions were recorded.

[3] = test system: primary T-cell derived WITO HIV interaction with human rI-domain; assay: SPR 1:1 competition assay, WITO HIV binding to rI-domain; details: for % inhibition: 1:1 competition, 1 μM; for Block HIV in SPR: direct competition SPR; for Drug RU: drug alone flowed at 1 μM over immobilized WITO HIV; for Pilin + Drug RU: drug and human rI-domain flowed at 1 μM, 1:1
Protocol: For competition analysis SPR of the HIV interaction with human rI-domain, primary T-cell derived WITO HIV was immobilized on a Cl sensor chip surface. Human rI-domain, drug or drug and human rI-domain were flowed at 1 μM over the immobilized HIV and the response units of the interactions were recorded. Any drug that could not compete with the virus or pilin binding to the rI-domain was also discarded. Remaining drugs were evaluated for known safety in humans and known therapeutic concentrations to determine if the drug would be tested, and at what concentrations, in in vitro cell models. All SPR sensorgrams and results plots were analyzed with Biacore S200 Evaluation Software (GE Healthcare Life Sciences).

N. gonorrhoeae strains = assay: Well diffusion assay in the absence of human cells; parameters: species or system Neisseria gonorrhoeae; details: GC-agar, overnight 37° C.
Protocol: (§1) FIG. 22 is a graphical representation showing the effect of carbamazepine on N. gonorrhoeae in the absence of human cells. Well diffusion assays were performed in which N. gonorrhoeae strains were spread uniformly across the surface of GC-agar plates at a culture density of 10^7 bacterial per mL. Wells were then punctured within the agar surface to which carbamazepine (Cz; […], as noted), 0.2 μg/mL ceftriaxone (Cfx), 10 μg/mL ciprofloxacin (Cip), or 1% DMSO (vehicle control) were added. […] For agar plates in which a ZOI was not visible, data were recorded as the diameter of the well (6 mm), as indicated. Assays were performed in triplicate on 3 separate occasions. Data are presented as the mean and variance of the average values obtained for each assay; statistical significance was determined using a Student's t-test. […] This is consistent with a CR3-dependent, host-mediated mechanism of killing.
as §1, with “23” for “22”, “methyldopa” for “carbamazepine”, “methyldopa (Md;” for “carbamazepine (Cz;”
FIG. 24 is a graphical representation showing the effect of flufenamic acid on N. gonorrhoeae in the absence of human cells. Well diffusion assays were performed in which N. gonorrhoeae strains were spread uniformly across the surface of GC-agar plates at a culture density of 10^7 bacterial per mL. Wells were then punctured within the agar surface to which flufenamic acid ([…], as noted), 0.2 μg/mL ceftriaxone, 10 μg/mL ciprofloxacin, or 1% DMSO (vehicle control) were added. […] For agar plates in which a ZOI was not visible, data were recorded as the diameter of the well (6 mm), as indicated. Assays were performed in triplicate on 3 separate occasions. Data are presented as the mean and variance of the average values obtained for each assay; statistical significance was determined using a Student's t-test.

[4] = test system: N. gonorrhoeae strain MS11gfp adherence to CHO-CR3 cells; assay: Fluorometric adherence assay, gonococci to CHO cells; type: cell-based, Neisseria gonorrhoeae
Protocol: The ability of carbamazepine to block adherence of N. gonorrhoeae strain MS11gfp to CHO-neo or CHO-CR3 cells was evaluated using a fluorometric adherence assay. Assays were performed essentially as described by Jen et al (2013, PLoS Pathog. 9(5):e1003377). In this regard, CHO-neo or CHO-CR3 cells were seeded to a 96-well plate and allowed to grow to confluence. MS11gfp gonococci were then used to challenge (1 h) CHO cells simultaneously with, or without, various concentrations of carbamazepine (as noted). Fluorescence (485/528 nm) intensity, corresponding to bacterial adherence, was recorded using a Synergy HT Multi-mode Microplate Reader (BioTek Instruments, Winooski, VT USA). The assay was performed in triplicate on 3 separate occasions. A Kruskal-Wallis k-sample analysis of variance was used to determine the statistical significance of the calculated mean of bacterial adherence.
(§2) The ability of the compounds, or negative controls to block adherence of N. gonorrhoeae strain MS11gfp to PEX cells, CHO-CR3, or CHO-neo cells was evaluated using a fluorometric microtiter plate assay. Assays were performed essentially as described by Jen et al. (2013, Plos Pathog 9(5): e1003377). In this regard, GFP-expressing gonococci were used to challenge (1 h) PEX or CHO cells immediately following compound addition. Fluorescence (485/528 nm) intensity, corresponding to bacterial adherence, was recorded using a Synergy HT Multi-mode Microplate Reader (BioTek Instruments, Winooski, VT USA). Blank wells, devoid of PEX or CHO cells, also were inoculated with bacteria and served as a control for non-specific binding. The assay was performed in triplicate on 3 separate occasions. A Student's t-test was used to determine the statistical significance of the calculated mean of bacterial adherence.

[5] = test system: N. gonorrhoeae adherence to primary human cervical epithelial (PEX) cells; assay: Fluorometric adherence assay, gonococci to PEX cells; type: cell-based, Neisseria gonorrhoeae; details: for gonococcal adherence to PEX cells with increasing concentrations: 1 h post-challenge; for inhibition at 0.01 µM: Neisseria gonorrhoeae, 1 h, read-out: inhibition of adherence to PEX cells; for gonococcal adherence to PEX cells compared with uninfected cells: MS11gfp
From the text: Briefly, six N. gonorrhoeae strains were used in the experiments. These included the laboratory strain, MS11; the low-passage isolates, 1291, UT38097, LT38885, PID-26, and SK92-679; all of which were transformed with the green fluorescent protein (GFP) expression plasmid, pCmGFP (GenBank accession number FJ172221) Srikhanta et al (2009, PLoS Pathog. 5(4):e1000400) and, thus, expressed GFP Edwards et al (2000, Infect Immun 68(9):5354-63). […] The ability of carbamazepine to block the adherence of N. gonorrhoeae to human, primary cervical epithelial (PEX) cells was evaluated using a fluorometric adherence assay. Assays were performed essentially as described by Jen et al (2013, supra). In this regard, PEX cells were seeded to a 96-well plate and allowed to grow to confluence. Gonococci were then used to challenge (1 h) PEX cells simultaneously with, or without, various concentrations of carbamazepine ([…], 10 nM, 1 μM, or 100 μM, as noted) or 1% DMSO (vehicle control). Uninfected PEX cells treated with 1% DMSO served as a control for background fluorescence. Fluorescence (485/528 nm) intensity, corresponding to bacterial adherence, was recorded using a Synergy HT Multi-mode Microplate Reader (BioTek Instruments, Winooski, VT USA). The assay was performed in triplicate on 3 separate occasions. A Student's t-test was used to determine the statistical significance of the calculated mean of bacterial adherence.
as §2

[6] = 0.2 μg/mL ceftriaxone, 10 μg/mL ciprofloxacin

T2 sequence (P11215 150-328): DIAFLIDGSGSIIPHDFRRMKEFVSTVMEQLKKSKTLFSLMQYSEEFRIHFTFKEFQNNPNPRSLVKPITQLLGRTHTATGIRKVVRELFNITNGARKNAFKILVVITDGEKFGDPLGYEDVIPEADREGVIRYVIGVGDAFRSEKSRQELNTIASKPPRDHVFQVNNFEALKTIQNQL
T1 sequence (P11215 150-328 limits assumed): as the sequence (P11215 150-328) above

| Compound | Kd [1] [nM] | inhibition at 0.1 µM [2] [%] | Block MS11 pilin in SPR [2] | Drug RU [2] [RU] | Pilin + Drug RU [2] [RU] | % inhibition [3] [%] | Block HIV in SPR [3] | Drug RU [3] [RU] | Pilin + Drug RU [3] [RU] | effect on N. gonorrhoeae in the absence of human cells (zone of inhibition) (N. gonorrhoeae strains; 100 μM to 100 μM [sic]) | effect on N. gonorrhoeae in the absence of human cells (zone of inhibition) (N. gonorrhoeae strains; concentrations of ≤1 μM) | blocking of the adherence of gonococci to CR3 ([4]; 100 μM, CHO-CR3 cells, 1 h) | gonococcal adherence to CHO-CR3, but not CHO-neo, cells with increasing concentrations ([4]; 1 h post-challenge) | gonococcal adherence to PEX cells with increasing concentrations [5] | inhibition at 0.01 µM [5] [%] | effect on N. gonorrhoeae in the absence of human cells (zone of inhibition) (N. gonorrhoeae strains; [6]) | Kd ([1]; SPR, single cycle kinetics, 25° C., PBS, read-out: KD) [nM] | gonococcal adherence to CHO-CR3 cells compared with CHO-neo cells ([4]; 100 μM, 1 h post-challenge) | gonococcal adherence to PEX cells compared with uninfected cells ([5]; 1 μM) | gonococcal adherence to PEX cells compared with uninfected cells ([5]; 100 μM) |
| --- | --- | --- | --- | --- | --- | --- | --- | --- | --- | --- | --- | --- | --- | --- | --- | --- | --- | --- | --- | --- |
| O=C(O)c1ccccc1Nc1cccc(C(F)(F)F)c1 [flufenamic acid, 2{[3-(trifluoromethyl)phenyl]amino}benzoic acid] | 6.66 | 79.8 | Yes | 4.627 | 10.872 | 85.47 | Yes | 0.473 | 8.857 | no effect | no effect | Greater than 86% | dose-dependent decrease | dose-dependent decrease | ~70 |  |  |  |  |  |
| O=C(O)c1cn(C2CC2)c2cc(N3CCNCC3)c(F)cc2c1=O [ciprofloxacin] |  |  |  |  |  |  |  |  |  |  |  |  |  |  |  | direct effect in killing gonococci |  |  |  |  |
| CO/N=C(\C(=O)N[C@@H]1C(=O)N2C(C(=O)O)=C(CSc3nc(=O)c(=O)[nH]n3C)CS[C@H]12)c1csc(N)n1 [ceftriaxone] |  |  |  |  |  |  |  |  |  |  |  |  |  |  |  | direct effect in killing gonococci |  |  |  |  |
| C[C@](N)(Cc1ccc(O)c(O)c1)C(=O)O [methyldopa, (S)-2-amino-3-(3,4-dihydroxyphenyl)-2-methyl-propanoic acid] |  | 88.9 | Yes | 4.578 | 8.003 | 93.94 | Yes | 0.296 | 3.692 | no effect |  |  | dose-dependent decrease | dose-dependent decrease | ~85 |  | 1.01 | not significantly different than that recorded for CHO-neo cells | not significantly (p≥0.234) different than those obtained for vehicle (DMSO)-treated, uninfected PEX cells | not significantly (p≥0.234) different than that recorded for uninfected cells |
